Laboratory results published in patent US20250127790A1, “COMBINATION THERAPY USING VPS34 INHIBITORS” (Deciphera Pharmaceuticals, LLC, priority 2021, published 2025).

Key:
[1] = system: 786-O renal cell carcinoma cells; experiment: qRT-PCR, Type 1 Interferon pathway gene expression in 786-O cells; format: cell-based, Human; settings: 2 μM, 24 hr
Experimental: (§1) 786-O cells were grown in RPMI-1640 medium containing 10% fetal bovine serum. Cells were then incubated for 2 days at 37 degrees Celsius, 5% CO2, and 95% humidity. 786-O cells were incubated with 2 μM of compound 1 for 24 hr. Cells were washed with PBS and RNA was isolated using the PureLink RNA kit (#12183018A, Thermo Fisher Scientific) according to the manufacturer's protocol. Genomic DNA was removed using DNA-binding columns (RNeasy plus kit, #74134, Qiagen) and/or DNase treatment (#12185010, Thermo Fisher Scientific). RNA was quantified using NanoDrop (Thermo Fisher Scientific) and 50 ng/μL RNA was used for cDNA synthesis with SuperScript IV VILO Master Mix (#11756050, Thermo Fisher Scientific). Quantitative RT-PCR (qRT-PCR) was run with diluted cDNA (1:25 or 1:12.5), PowerUp SYBR Green Master Mix (#A25741, Thermo Fisher Scientific), and 200 nM primers (see below) on a CFX Connect RT-PCR system (BioRad). Data was analyzed using the ΔΔCT method. Results are mean±SEM of three independent experiments.

[2] = system: A-498 renal cell carcinoma cells; experiment: qRT-PCR with siRNA knockdown of STING pathway genes, A-498 cells; format: cell-based, Human; settings: 24 h; for increase in mRNA expression of CCL5 / increase in mRNA expression of CXCL10 / increase in mRNA expression of IFNB1 / increase in mRNA expression of IRF7 / IFNB1, IRF7, CCL5 and CXCL10 expression with siRNA knockdown of CGAS / IFNB1, IRF7, CCL5 and CXCL10 expression with siRNA knockdown of STING: 2 μM; for IFNB1, IRF7, CCL5 and CXCL10 expression with siRNA knockdown of CGAS: siCGAS; for IFNB1, IRF7, CCL5 and CXCL10 expression with siRNA knockdown of CGAS / IFNB1, IRF7, CCL5 and CXCL10 expression with siRNA knockdown of STING / IFNB1, IRF7, CCL5 or CXCL10 expression with siRNA knockdown of TBK1: vs compound alone; for IFNB1, IRF7, CCL5 and CXCL10 expression with siRNA knockdown of STING: siSTING; for IFNB1, IRF7, CCL5 or CXCL10 expression with siRNA knockdown of TBK1: siTBK1, 2 μM
Experimental: A-498 cells were grown in Minimal Essential Medium containing 10% fetal bovine serum. Cells were then incubated for 2 days at 37 degrees Celsius, 5% CO2, and 95% humidity. A498 cells were transfected with scrambled siRNA control (siSCR) or siRNA targeting TBK1 (siTBK1), STING (siSTING) or CGAS (siCGAS). After 48 h cells were treated with DMSO or 2 μM of VPS34 inhibitor (Compound 1 or Compound 2) for 24 h. Cells were washed with PBS and RNA was isolated using the PureLink RNA kit (#12183018A, Thermo Fisher Scientific) according to the manufacturer's protocol. Genomic DNA was removed using DNA-binding columns (RNeasy plus kit, #74134, Qiagen) and/or DNase treatment (#12185010, Thermo Fisher Scientific). RNA was quantified using NanoDrop (Thermo Fisher Scientific) and 50 ng/μL RNA was used for cDNA synthesis with SuperScript IV VILO Master Mix (#11756050, Thermo Fisher Scientific). Quantitative RT-PCR (qRT-PCR) was run with diluted cDNA (1:25 or 1:12.5), PowerUp SYBR Green Master Mix (#A25741, Thermo Fisher Scientific), and 200 nM primers (see below) on a CFX Connect RT-PCR system (BioRad). Data was analyzed using the ΔΔCT method. Results are mean±SEM of three independent experiments.

[3] = system: CT26 colorectal cancer cells; experiment: qRT-PCR, combination with cGAMP, CT26 cells; format: cell-based, Mouse; settings: 24 hours, 5 μM Compound 1 or 10 μM Compound 2, 10 mg/mL cGAMP
Experimental: as §1, with “CT26” for “786-O”, “treated” for “grown in RPMI-1640 medium containing 10% fetal bovine serum. Cells were then incubated for 2 days at 37 degrees Celsius, 5% CO2, and 95% humidity. 786-O cells were incubated with 2 μM of compound 1”, “hours with DMSO or VPS34 inhibitors (5 μM Compound 1 or 10 μM Compound 2) in combination with 10 mg/mL STING agonist cGAMP (green bars).” for “hr.”

4T1 breast cancer cells = experiment: Cytokine secretion assay, combination with cGAMP, 4T1 cells; format: cell-based, mouse; settings: 24 hours, 5 μM Compound 1 or 10 μM Compound 2, 10 mg/ml cGAMP
Experimental: as §1, with “4T1” for “786-O”, “treated” for “grown in RPMI-1640 medium containing 10% fetal bovine serum. Cells were then incubated for 2 days at 37 degrees Celsius, 5% CO2, and 95% humidity. 786-O cells were incubated with 2 μM of compound 1”, “hours with DMSO or VPS34 inhibitors (5 μM Compound 1 or 10 μM Compound 2) in combination with 10 mg/ml STING agonist cGAMP (green bars).” for “hr.”
Cell culture medium was centrifuged at 1600 rpm for 10 min at 4° C. and obtained supernatant stored at −80° C. Cytokine levels were quantified using following Meso Scale Discovery (MSD) assays: mouse U-PLEX RANTES/CCL5 (#K152A2K) and U-PLEX IP-10/CXCL10 (#K152UFK). Assays were run on the SECTOR Quickplex Imager and analyzed using Discovery Workbench version 4.0 (MSD).

Row | SMILES | increase in mRNA expression of IRF9 [1] | increase in mRNA expression of CCL5 [2] | increase in mRNA expression of CXCL10 [2] | increase in mRNA expression of IFNB1 [2] | increase in mRNA expression of IRF7 [2] | IFNB1, IRF7, CCL5 and CXCL10 expression with siRNA knockdown of CGAS [2] | IFNB1, IRF7, CCL5 and CXCL10 expression with siRNA knockdown of STING [2] | IFNB1, IRF7, CCL5 or CXCL10 expression with siRNA knockdown of TBK1 [2] | CCL5 mRNA expression [3] | CXCL10 mRNA expression [3] | CCL5 protein secretion (4T1 breast cancer cells) | CXCL10 protein secretion (4T1 breast cancer cells)
1 | C[C@@H]1COCCN1c1cc(N2CCCC[C@@H]2C(F)(F)F)[nH]c(=O)c1 [Compound 1, 4-((R)-3-methylmorpholino)-6-((R)-2-(trifluoromethyl)piperidin-1-yl)pyridin-2(1H)-one] | approximately 2 fold | > 4 fold | > 5 fold | > 5 fold | ~4 fold | complete ablation | complete ablation | moderate or negligible changes | increased | increased | increased | increased
2 | C[C@@H]1COCCN1c1cc(=O)n2c(n1)N(Cc1cncc(Cl)c1)[C@H](C(F)(F)F)CC2 [Compound 2, (S)-9-((5-chloropyridin-3-yl)methyl)-2-((R)-3-methylmorpholino)-8-(trifluoromethyl)-6,7,8,9-tetrahydro-4H-pyrimido[1,2-a]pyrimidin-4-one] | approximately 2 fold | ~8 fold | ~10 fold | > 10 fold | ~7 fold | complete ablation | complete ablation | moderate or negligible changes | increased | increased | increased | increased
